What was measured:
MCF7/ERα Y537S cells = experiment: Inhibitory activity on proliferation of ERα mutant-expressing MCF7 cells; format: cell-based; settings: Homo sapiens, 144 h, 6 days incubation, CellTiter-Glo, read-out: IC50 (nM), inhibition of proliferation of ERα mutant-expressing MCF7 cells
Experimental: The objective of this experiment was to determine the inhibitory activity of the compounds of the present disclosure on the proliferation of ERα mutant-expressing MCF7 cells.
(§1) MCF7 cells expressing the ERα Y537S mutant were constructed by lentiviral infection. MCF7/ERα Y537S cells were cultured in an MEM (GE Healthcare, SH30024.01) complete medium containing 10% fetal bovine serum and 1 g/mL puromycin. On day 1 of the experiment, cells were seeded into a 96-well plate at a density of 3,000 cells/well using MEM containing 2% fetal bovine serum, with each well containing 135 µL of cell suspension. The plate was incubated in a 37° C., 5% CO2 cell incubator overnight. The next day, different concentrations of test compounds prepared in media were added at 15 μL/well. The final concentrations of the compounds were 9 concentration points obtained by 4-fold serial dilution from 1000 nM. A blank control containing 0.5% DMSO was set up. The plate was incubated in a 37° C., 5% CO2 cell incubator for 6 days. On day 8, the 96-well cell culture plate was taken out, and CellTiter-Glo® Luminescent Cell Viability Assay (Promega, G7573) was added at 75 µL/well. After the plate was left at room temperature for 10 min, luminescence signal readings were taken on a multilabel microplate reader (PerkinElmer, VICTOR 3). The IC50 values for the inhibitory activity of the compounds were calculated from the concentrations of the compounds and the luminescence signal readings using Graphpad Prism software.

MCF7 cells = experiment: Inhibitory effects on MCF7 cell proliferation (CellTiter-Glo); format: cell-based; settings: Homo sapiens, 144 h, 6 days incubation, read-out: IC50 (nM), inhibition of MCF7 cell proliferation
Experimental: as §1, with “(TCHu74, National Collection of Authenticated Cell Cultures)” for “expressing the ERα Y537S mutant were constructed by lentiviral infection. MCF7/ERα Y537S cells”, “serum.” for “serum and 1 g/mL puromycin.”, “experiment, MCF7” for “experiment,”, “μL” for “µL”, “μL/well.” for “µL/well.”

Compound	IC50 (MCF7/ERα Y537S cells) [nM]	IC50 (MCF7 cells) [nM]
O=C1CCC(N2Cc3cc(N4CCN(CC5CCN(c6ccc([C@@H]7c8ccc(O)cc8CC[C@@H]7CC7CC7)cc6)CC5)CC4)ccc3C2=O)C(=O)N1 (stereo in doubt) [Example 34, (S)-3-(5-(4-((1-(4-((1R,2R)-2-(Cyclopropylmethyl)-6-hydroxy-1,2,3,4-tetrahydronaphthalen-1-yl)phenyl)piperidin-4-yl)methyl)piperazin-1-yl)-1-oxoisoindolin-2-yl)piperidine-2,6-dione]	19.2	1.51
O=C1CCC(N2Cc3cc(N4CCN(CC5CCN(c6ccc([C@@H]7c8ccc(O)cc8CCC78CCCC8)cc6F)CC5)CC4)ccc3C2=O)C(=O)N1 (stereo in doubt) [Example 36, (S)-3-(5-(4-((1-(2-Fluoro-4-((R)-6′-hydroxy-3′,4′-dihydro-1′H-spiro[cyclopentane-1,2′-naphthalen]-1′-yl)phenyl)piperidin-4-yl)methyl)piperazin-1-yl)-1-oxoisoindolin-2-yl)piperidine-2,6-dione]	8.35	1.56
O=C1CCC(N2Cc3cc(N4CCN(CC5CCN(c6ccc(C7c8ccc(O)cc8CCC78CCCC8)cc6)CC5)CC4)ccc3C2=O)C(=O)N1 (centres unmarked) [Example 1, 3-(5-(4-((1-(4-(6′-Hydroxy-3′,4′-dihydro-1′H-spiro[cyclopentane-1,2′-naphthalen]-1′-yl)phenyl)piperidin-4-yl)methyl)piperazin-1-yl)-1-oxoisoindolin-2-yl)piperidine-2,6-dione]	14.9	6.15
O=C1CC[C@H](N2Cc3cc(N4CCN(CC5CCN(c6ccc([C@@H]7c8ccc(O)cc8CC[C@@H]7C7CCOCC7)cc6F)CC5)CC4)ccc3C2=O)C(=O)N1 [Example 5, (S)-3-(5-(4-((1-(2-Fluoro-4-((1R,2R)-6-hydroxy-2-(tetrahydro-2H-pyran-4-yl)-1,2,3,4-tetrahydronaphthalen-1-yl)phenyl)piperidin-4-yl)methyl)piperazin-1-yl)-1-oxoisoindolin-2-yl)piperidine-2,6-dione]	2.29	0.72
O=C1CCC(N2Cc3cc(N4CCN(CC5CCN(c6ccc(C7c8ccc(O)cc8CC[C@@H]7C7CCOCC7)cc6)CC5)CC4)ccc3C2=O)C(=O)N1 (stereo partly drawn) [Example 7, 3-(5-(4-((1-(4-((1,2)-cis-6-Hydroxy-2-(tetrahydro-2H-pyran-4-yl)-1,2,3,4-tetrahydronaphthalen-1-yl)phenyl)piperidin-4-yl)methyl)piperazin-1-yl)-1-oxoisoindolin-2-yl)piperidine-2,6-dione]	3.31	0.67
O=C1CCC(N2Cc3cc(N4CCN(CC5CCN(c6ccc([C@H]7c8ccc(O)cc8CC[C@H]7C7CCOCC7)cc6)CC5)CC4)ccc3C2=O)C(=O)N1 (stereo partly drawn) [Example 8-2, 3-(5-(4-((1-(4-((1S,2S)-6-Hydroxy-2-(tetrahydro-2H-pyran-4-yl)-1,2,3,4-tetrahydronaphthalen-1-yl)phenyl)piperidin-4-yl)methyl)piperazin-1-yl)-1-oxoisoindolin-2-yl)piperidine-2,6-dione]	92.2	36.5
O=C1CCC(N2Cc3cc(N4CCN(CC5CCN(c6ccc(C7c8ccc(O)cc8CC[C@@H]7C7CCC(F)(F)CC7)cc6)CC5)CC4)ccc3C2=O)C(=O)N1 (stereo partly drawn) [Example 9, 3-(5-(4-((1-(4-((1,2)-cis-2-(4,4-Difluorocyclohexyl)-6-hydroxy-1,2,3,4-tetrahydronaphthalen-1-yl)phenyl)piperidin-4-yl)methyl)piperazin-1-yl)-1-oxoisoindolin-2-yl)piperidine-2,6-dione]	8.73	2.14
O=C1CC[C@H](N2Cc3cc(N4CCN(CC5CCN(c6ccc([C@@H]7c8ccc(O)cc8CC[C@@H]7C7CCC7)cc6)CC5)CC4)ccc3C2=O)C(=O)N1 [Example 13-1, (S)-3-(5-(4-((1-(4-((1R,2R)-2-Cyclobutyl-6-hydroxy-1,2,3,4-tetrahydronaphthalen-1-yl)phenyl)piperidin-4-yl)methyl)piperazin-1-yl)-1-oxoisoindolin-2-yl)piperidine-2,6-dione]	4.79	0.83
O=C1CCC(N2Cc3cc(N4CCN(CC5CCN(c6ccc([C@H]7c8ccc(O)cc8CC[C@H]7C7CCCC7)cc6)CC5)CC4)ccc3C2=O)C(=O)N1 (stereo partly drawn) [Example 14-2, 3-(5-(4-((1-(4-((1S,2S)-2-Cyclopentyl-6-hydroxy-1,2,3,4-tetrahydronaphthalen-1-yl)phenyl)piperidin-4-yl)methyl)piperazin-1-yl)-1-oxoisoindolin-2-yl)piperidine-2,6-dione]	24.4	8.17
O=C1CCC(N2Cc3cc(N4CCN(CC5CCN(c6ccc([C@H]7c8ccc(O)cc8CC[C@H]7C7CCCCC7)cc6)CC5)CC4)ccc3C2=O)C(=O)N1 (stereo partly drawn) [Example 15-2, 3-(5-(4-((1-(4-((1S,2S)-2-Cyclohexyl-6-hydroxy-1,2,3,4-tetrahydronaphthalen-1-yl)phenyl)piperidin-4-yl)methyl)piperazin-1-yl)-1-oxoisoindolin-2-yl)piperidine-2,6-dione]	31.4	14.3
O=C1CCC(N2Cc3cc(N4CCN(CC5CCN(c6ccc([C@@H]7c8ccc(O)cc8CC[C@@H]7C7CC7)cc6)CC5)CC4)ccc3C2=O)C(=O)N1 (stereo partly drawn) [Example 16, 3-(5-(4-((1-(4-((1,2)-cis-2-Cyclopropyl-6-hydroxy-1,2,3,4-tetrahydronaphthalen-1-yl)phenyl)piperidin-4-yl)methyl)piperazin-1-yl)-1-oxoisoindolin-2-yl)piperidine-2,6-dione]	14.9	4.63
O=C1CC[C@H](N2Cc3cc(N4CCN(CC5CCN(c6ccc([C@@H]7c8ccc(O)cc8CC[C@@H]7C7CCC7)cc6F)CC5)CC4)ccc3C2=O)C(=O)N1 [Example 18-1, (S)-3-(5-(4-((1-(4-((1R,2R)-2-Cyclobutyl-6-hydroxy-1,2,3,4-tetrahydronaphthalen-1-yl)-2-fluorophenyl)piperidin-4-yl)methyl)piperazin-1-yl)-1-oxoisoindolin-2-yl)piperidine-2,6-dione]	7.77	1.35
O=C1CC[C@H](N2Cc3cc(N4CCN(CC5CCN(c6ccc([C@@H]7c8ccc(O)cc8CC[C@@H]7C7CCCC7)cc6F)CC5)CC4)ccc3C2=O)C(=O)N1 [Example 19, (S)-3-(5-(4-((1-(4-((1R,2R)-2-cyclopentyl-6-hydroxy-1,2,3,4-tetrahydronaphthalen-1-yl)-2-fluorophenyl)piperidin-4-yl)methyl)piperazin-1-yl)-1-oxoisoindolin-2-yl)piperidine-2,6-dione]	5.04	0.87
O=C1CC[C@H](N2Cc3cc(N4CCN(CC5CCN(c6ccc([C@@H]7c8ccc(O)cc8CC[C@@H]7C7CCCCC7)cc6F)CC5)CC4)ccc3C2=O)C(=O)N1 [Example 20, (S)-3-(5-(4-((1-(4-((1R,2R)-2-Cyclohexyl-6-hydroxy-1,2,3,4-tetrahydronaphthalen-1-yl)-2-fluorophenyl)piperidin-4-yl)methyl)piperazin-1-yl)-1-oxoisoindolin-2-yl)piperidine-2,6-dione]	2.74	0.73
O=C1CC[C@H](N2Cc3cc(N4CCN(CC5CCN(c6ccc([C@@H]7c8ccc(O)cc8CC[C@@H]7C7CC7)cc6F)CC5)CC4)ccc3C2=O)C(=O)N1 [Example 21, (S)-3-(5-(4-((1-(4-((1R,2R)-2-Cyclopropyl-6-hydroxy-1,2,3,4-tetrahydronaphthalen-1-yl)-2-fluorophenyl)piperidin-4-yl)methyl)piperazin-1-yl)-1-oxoisoindolin-2-yl)piperidine-2,6-dione]	5.66	1.72
O=C1CC[C@H](N2Cc3cc(N4CCN(CC5CCN(c6ccc([C@@H]7c8ccc(O)cc8CCC78CCOCC8)cc6)CC5)CC4)ccc3C2=O)C(=O)N1 [Example 22, (S)-3-(5-(4-((1-(4-((R)-6-Hydroxy-2′,3,3′,4,5′,6′-hexahydro-1H-spiro[naphthalene-2,4′-pyran]-1-yl)phenyl)piperidin-4-yl)methyl)piperazin-1-yl)-1-oxoisoindolin-2-yl)piperidine-2,6-dione]	9.19	3.13

From patent US20250099596A1, “TETRAHYDRONAPHTHALENE COMPOUND, AND PREPARATION METHOD THEREFOR AND USE THEREOF IN MEDICINE” (Jiangsu Hengrui Pharmaceuticals Co., Ltd., priority 2021, published 2025)
